Tests used:
[1] = Dose titration study of oral HIM2 vs. insulin lispro: glucodynamics; format: in vivo, human; conditions: adult type 1 diabetes patients; for Day 3 - 2 Hour Post-prandial Glucose, Breakfast (Mean ± SEM) / Day 3 - 2 Hour Post-prandial Glucose, Dinner (Mean ± SEM) / Day 3 - 2 Hour Post-prandial Glucose, Evening Snack (Mean ± SEM) / Day 3 - 2 Hour Post-prandial Glucose, Lunch (Mean ± SEM): basal CSII, HIM2 p.o., Lispro s.c., titrated doses; for Day 3 - 2 Hour Post-prandial Glucose, Breakfast (Mean ± SEM): after breakfast, p = 0.28; for Day 3 - 2 Hour Post-prandial Glucose, Dinner (Mean ± SEM): after dinner, p = 0.07; for Day 3 - 2 Hour Post-prandial Glucose, Evening Snack (Mean ± SEM): after evening snack, p = 0.24; for Day 3 - 2 Hour Post-prandial Glucose, Lunch (Mean ± SEM): after lunch, p = 0.29; for Day 3 - Daily Mean (±SEM) Plasma Glucose AUC: total 24-hour AUC divided by 1440 (time-adjusted), p = 0.46; for Patients with average 2-hour post-prandial glucose levels consistent with pre-study values (range 80-250 mg/dL): Fisher's exact test p=0.42
Protocol: A 3-day inpatient dosing period was performed.
Assays: Plasma glucose: glucose oxidase-based enzymatic assay. Plasma insulin: RIA method (Linco Research, St. Charles, Mo.). […] (2) Daily mean plasma glucose on Day 3. (3) Postprandial glucose at 2 hours during Day 3. (4) Number of rescue interventions (hypoglycemia).

[2] = in vivo
Protocol: Study Objectives: To evaluate whether HIM2 doses, when titrated, are able to maintain 2-hour post-prandial blood glucose levels consistent with the pre-study range between 80-250 mg/dL as compared to insulin lispro and to evaluate the safety profile for HIM2. Patient Population: Adult patients with type 1 diabetes participated in the study. […] Design and Methods: A multicenter, dose titration, randomized, insulin lispro controlled, parallel, open-label study was conducted. A 2-day inpatient period was provided to establish optimal basal rate. A 5-7 day run-in period (maintained optimized basal rate; insulin requirements, episodes of hypoglycemia or hyperglycemia, dietary intake and physical activity recorded) was provided. A 3-day inpatient dosing period was performed. Carbohydrate intake was individualized (40% of total calories, equally divided among 4 meals during each study day). Basal insulin (CSII) was unchanged throughout the 3-day dosing period. Initial Doses: HIM2 0.25 mg/kg (7.2 U/kg; 1 mg of insulin=28.7 units of insulin), p.o., in a formulation shown in Table 1, 10 minutes prior to meal, HIM2 0.125 mg/kg (3.6 U/kg; 1 mg of insulin=28.7 units of insulin), p.o., in a formulation shown in Table 1, 120 minutes post meal, and Insulin lispro (commercially available from Eli Lilly & Co., Indianapolis, Ind.) (hereinafter “Lispro”), 0.1 U/kg (0.003 mg/kg; 1 mg of insulin=28.7 units of insulin), s.c., 15 minutes prior to meal. Doses were adjusted as necessary with the next scheduled dose according to the dose titration rules described in Table 2; however, no dose titration was allowed during study day 3.
Assays: Plasma glucose: glucose oxidase-based enzymatic assay. Plasma insulin: RIA method (Linco Research, St. Charles, Mo.). Efficacy Variables: The following variables were evaluated to determine efficacy of HIM2 compared to Lispro. (1) Percentage of patients able to maintain 2-hour postprandial blood glucose levels consistent with pre-study values between 80-250 mg/dL on Day 3 (HIM2 compared to insulin lispro). (2) Daily mean plasma glucose on Day 3. (3) Postprandial glucose at 2 hours during Day 3. (4) Number of rescue interventions (hypoglycemia). Safety Variables: Adverse events, vital signs, clinical chemistry, hematology, urinalysis, and ECG monitoring. Data Analysis: A comparison of proportion of patients within target glucose range (80-250 mg/dL) was analyzed. The daily mean plasma glucose AUC was analyzed using a t-test. The Day 3-2 hour post-prandial glucose was analyzed using a t-test. Comparison of rates for hypoglycemic events was analyzed using glucose 50-60 mg/dL, glucose ≦50 mg/mL, and number of rescue interventions. Demographics: A total of 31 patients were enrolled and analyzed in this study (15 M/16 F).

For Insulin lispro [reference compound], the “Day 3 - 2 Hour Post-prandial Glucose, Breakfast (Mean ± SEM)” value [1] was 158.2 ± 24.3, the “Day 3 - 2 Hour Post-prandial Glucose, Dinner (Mean ± SEM)” value [1] was 195.3 ± 20.6 and the “Day 3 - 2 Hour Post-prandial Glucose, Evening Snack (Mean ± SEM)” value [1] was 197.9 ± 20.4. The “Day 3 - 2 Hour Post-prandial Glucose, Lunch (Mean ± SEM)” value [1] was 202.6 ± 16.1, the “Day 3 - Daily Mean (±SEM) Plasma Glucose AUC” value [1] was 170.6 ± 11.8 mg/dL and the “Patients with average 2-hour post-prandial glucose levels consistent with pre-study values (range 80-250 mg/dL)” value [1] was 83%.
For “Lys^B29-Hexyl-PEG7-Oligomer-Conjugated Insulin [HIM2]”, the “Documented serious adverse event for hypoglycemia” value [2] was “One”, the “Hypoglycemic events that required rescue intervention” value [2] was “significantly lower” and the “Number and frequency of gastrointestinal side effects (primarily unpleasant taste and diarrhea)” value [2] was “occurred more frequently”. For the same substance, the “Number of hypoglycemic events (overall assessment)” value [2] was “trend toward fewer events”, the “Day 3 - 2 Hour Post-prandial Glucose, Breakfast (Mean ± SEM)” value [1] was 192.3 ± 19.4 and the “Day 3 - 2 Hour Post-prandial Glucose, Dinner (Mean ± SEM)” value [1] was 249.0 ± 19.3. For the same substance, the “Day 3 - 2 Hour Post-prandial Glucose, Evening Snack (Mean ± SEM)” value [1] was 231.4 ± 18.4, the “Day 3 - 2 Hour Post-prandial Glucose, Lunch (Mean ± SEM)” value [1] was 232.9 ± 21.0 and the “Day 3 - Daily Mean (±SEM) Plasma Glucose AUC” value [1] was 182.0 ± 10.0 mg/dL. For the same substance, the “Patients with average 2-hour post-prandial glucose levels consistent with pre-study values (range 80-250 mg/dL)” value [1] was 63%.

— patent US7601688B2, “Methods of reducing hypoglycemic episodes in the treatment of diabetes mellitus” (Biocon Limited, priority 2001, dated 2009)
